Key:
[1] = tested on: NCI/ADR-RES; assay: Growth inhibition of human NCI/ADR-RES cells assessed as cell growth at 1 uM incubated for 48 hrs by sulforhodamine B assay relative to control; assay type: functional; settings: read-out: Activity
[2] = tested on: T47D; assay: Growth inhibition of human T47D cells assessed as cell growth at 100 uM incubated for 48 hrs by sulforhodamine B assay relative to control; assay type: functional; settings: read-out: Activity
[3] = tested on: U-251; assay: Growth inhibition of human U251 cells assessed as cell growth at 100 uM incubated for 48 hrs by sulforhodamine B assay relative to control; assay type: functional; settings: U-251, 48 h, read-out: Activity
[4] = tested on: RXF 393; assay: Growth inhibition of human RXF393 cells assessed as cell growth at 100 uM incubated for 48 hrs by sulforhodamine B assay relative to control; assay type: functional; settings: RXF 393, 48 h, read-out: Activity
[5] = tested on: PC-3; assay: Growth inhibition of human PC3 cells assessed as cell growth at 0.1 uM incubated for 48 hrs by sulforhodamine B assay relative to control; assay type: functional; settings: PC-3, 48 h, read-out: Activity
[6] = tested on: NCI-H322M; assay: Growth inhibition of human NCI-H322M cells assessed as cell growth at 100 uM incubated for 48 hrs by sulforhodamine B assay relative to control; assay type: functional; settings: read-out: Activity
[7] = tested on: A549; assay: Growth inhibition of human A549/ATCC cells assessed as cell growth at 0.1 uM incubated for 48 hrs by sulforhodamine B assay relative to control; assay type: functional; settings: A549, 48 h, read-out: Activity
[8] = tested on: MDA-MB-435; assay: Growth inhibition of human MDA-MB-435 cells assessed as cell growth at 0.1 uM incubated for 48 hrs by sulforhodamine B assay relative to control; assay type: functional; settings: MDA-MB-435, 48 h, read-out: Activity
[9] = tested on: HOP-62; assay: Growth inhibition of human HOP62 cells assessed as cell growth at 100 uM incubated for 48 hrs by sulforhodamine B assay relative to control; assay type: functional; settings: HOP-62, 48 h, read-out: Activity
[10] = tested on: HCT-15; assay: Growth inhibition of human HCT15 cells assessed as cell growth at 1 uM incubated for 48 hrs by sulforhodamine B assay relative to control; assay type: functional; settings: HCT-15, 48 h, read-out: Activity
[11] = tested on: SF-268; assay: Growth inhibition of human SF268 cells assessed as cell growth at 1 uM incubated for 48 hrs by sulforhodamine B assay relative to control; assay type: functional; settings: SF-268, 48 h, read-out: Activity
[12] = tested on: NCI-H460; assay: Growth inhibition of human NCI-H460 cells assessed as cell growth at 100 uM incubated for 48 hrs by sulforhodamine B assay relative to control; assay type: functional; settings: NCI-H460, 48 h, read-out: Activity
[13] = tested on: MDA-MB-231; assay: Growth inhibition of human MDA-MB-231 cells assessed as cell growth at 0.01 uM incubated for 48 hrs by sulforhodamine B assay relative to control; assay type: functional; settings: MDA-MB-231, 48 h, read-out: Activity
[14] = tested on: CCRF-CEM; assay: Growth inhibition of human CCRF-CEM cells incubated for 48 hrs by sulforhodamine B assay; assay type: functional, cell-based
[15] = tested on: M14; assay: Growth inhibition of human M14 cells assessed as cell growth at 100 uM incubated for 48 hrs by sulforhodamine B assay relative to control; assay type: functional; settings: M14, 48 h, read-out: Activity
[16] = tested on: CCRF-CEM; assay: Growth inhibition of human CCRF-CEM cells assessed as cell growth at 0.1 uM incubated for 48 hrs by sulforhodamine B assay relative to control; assay type: functional; settings: read-out: Activity
[17] = tested on: Malme-3M; assay: Growth inhibition of human MALME-3M cells incubated for 48 hrs by sulforhodamine B assay; assay type: functional, cell-based
[18] = tested on: NCI-H226; assay: Growth inhibition of human NCI-H226 cells incubated for 48 hrs by sulforhodamine B assay; assay type: functional, cell-based; settings: NCI-H226, 48 h
[19] = tested on: RPMI-8226; assay: Growth inhibition of human RPMI8226 cells assessed as cell growth at 1 uM incubated for 48 hrs by sulforhodamine B assay relative to control; assay type: functional; settings: RPMI-8226, 48 h, read-out: Activity
[20] = tested on: COLO 205; assay: Growth inhibition of human COLO205 cells assessed as cell growth at 0.1 uM incubated for 48 hrs by sulforhodamine B assay relative to control; assay type: functional; settings: COLO 205, 48 h, read-out: Activity
[21] = tested on: MDA-MB-468; assay: Growth inhibition of human MDA-MB-468 cells incubated for 48 hrs by sulforhodamine B assay; assay type: functional, cell-based; settings: MDA-MB-468, 48 h
[22] = tested on: SK-MEL-28; assay: Growth inhibition of human SK-MEL-28 cells assessed as cell growth at 0.1 uM incubated for 48 hrs by sulforhodamine B assay relative to control; assay type: functional; settings: SK-MEL-28, 48 h, read-out: Activity
[23] = tested on: SW-620; assay: Growth inhibition of human SW620 cells incubated for 48 hrs by sulforhodamine B assay; assay type: functional, cell-based; settings: SW-620, 48 h
[24] = tested on: SK-MEL-5; assay: Growth inhibition of human SK-MEL-5 cells assessed as cell growth at 0.1 uM incubated for 48 hrs by sulforhodamine B assay relative to control; assay type: functional; settings: SK-MEL-5, 48 h, read-out: Activity
[25] = tested on: NCI-H522; assay: Growth inhibition of human NCI-H522 cells assessed as cell growth at 0.1 uM incubated for 48 hrs by sulforhodamine B assay relative to control; assay type: functional; settings: NCI-H522, 48 h, read-out: Activity
[26] = tested on: MDA-MB-468; assay: Growth inhibition of human MDA-MB-468 cells assessed as cell growth at 1 uM incubated for 48 hrs by sulforhodamine B assay relative to control; assay type: functional; settings: MDA-MB-468, 48 h, read-out: Activity
[27] = tested on: Malme-3M; assay: Growth inhibition of human MALME-3M cells assessed as cell growth at 0.1 uM incubated for 48 hrs by sulforhodamine B assay relative to control; assay type: functional; settings: read-out: Activity
[28] = tested on: CCRF-CEM; assay: Growth inhibition of human CCRF-CEM cells assessed as cell growth at 1 uM incubated for 48 hrs by sulforhodamine B assay relative to control; assay type: functional; settings: read-out: Activity
[29] = tested on: UACC-257; assay: Growth inhibition of human UACC257 cells assessed as cell growth at 0.1 uM incubated for 48 hrs by sulforhodamine B assay relative to control; assay type: functional; settings: UACC-257, 48 h, read-out: Activity
[30] = tested on: SF-539; assay: Growth inhibition of human SF539 cells assessed as cell growth at 0.01 uM incubated for 48 hrs by sulforhodamine B assay relative to control; assay type: functional; settings: SF-539, 48 h, read-out: Activity
[31] = read-out: LC50 (the source's name)
[32] = read-out: pLC50 (the source's name) (converted)

With O=C(Nc1cccc(-n2cc(-c3ccncc3)c(-c3cc(O)cc(Cl)c3)n2)c1)Nc1ccc(Cl)c(C(F)(F)F)c1 the growth at 1 µM [1] was 97%, the growth at 100 µM [2] was -52% and the growth at 100 µM [3] was -84%. The growth at 100 µM [4] was -72%, the growth at 0.1 µM [5] was 98% and the growth at 100 µM [6] was -81%. The growth at 0.1 µM [7] was 100%, the growth at 0.1 µM [8] was 94% and the growth at 100 µM [9] was -12%. The growth at 1 µM [10] was 90%, the growth at 1 µM [11] was 92% and the growth at 100 µM [12] was -52%. For the same molecule, the growth at 0.01 µM [13] was 105%, the GI50 ([14]; read-out: GI50) was 2.73 µM and the CC50 [14, 31] was over 100 µM. For the same molecule, the TGI ([14]; read-out: TGI) was 85 µM, the GI50 ([14]; read-out: pGI50 (converted)) was 2.75 µM and the CC50 [14, 32] was over 100 µM. The TGI ([14]; read-out: pTGI (converted)) was 8.91 µM, the growth at 100 µM [15] was -57% and the growth at 0.1 µM [16] was 95%. The GI50 ([17]; read-out: GI50) was 2.37 µM, the CC50 [17, 31] was 24.3 µM and the TGI ([17]; read-out: TGI) was 62.5 µM. For the same molecule, the GI50 ([17]; read-out: pGI50 (converted)) was 2.34 µM, the CC50 [17, 32] was 24.5 µM and the TGI ([17]; read-out: pTGI (converted)) was 6.31 µM. For the same molecule, the GI50 ([18]; read-out: GI50) was 2.47 µM, the LC50 ([18]; read-out: LC50) was over 100 µM and the TGI ([18]; read-out: TGI) was 89.6 µM. It also gave a GI50 ([18]; read-out: pGI50 (converted)) of 2.45 µM, an LC50 ([18]; read-out: pLC50 (converted)) of over 100 µM and a TGI ([18]; read-out: pTGI (converted)) of 8.91 µM. For the same molecule, the growth at 1 µM [19] was 88%, the growth at 0.1 µM [20] was 95% and the IC50 [21] was 2.08 µM. For the same molecule, the GI50 ([21]; read-out: GI50) was 2.05 µM, the CC50 [21, 31] was over 100 µM and the TGI ([21]; read-out: TGI) was 84.2 µM. It also gave a GI50 ([21]; read-out: pGI50 (converted)) of 2.63 µM, a CC50 [21, 32] of over 100 µM and a TGI ([21]; read-out: pTGI (converted)) of 8.51 µM. For the same molecule, the growth at 0.1 µM [22] was 100%, the GI50 ([23]; read-out: GI50) was 3.29 µM and the LC50 ([23]; read-out: LC50) was 58 µM. For the same molecule, the TGI ([23]; read-out: TGI) was 10.7 µM, the GI50 ([23]; read-out: pGI50 (converted)) was 3.31 µM and the LC50 ([23]; read-out: pLC50 (converted)) was 56.2 µM. It also gave a TGI ([23]; read-out: pTGI (converted)) of 10.7 µM, a growth at 0.1 µM [24] of 98% and a growth at 0.1 µM [25] of 83%. The growth at 1 µM [26] was 75%, the growth at 0.1 µM [27] was 81% and the growth at 1 µM [28] was 92%. It also gave a growth at 0.1 µM [29] of 91% and a growth at 0.01 µM [30] of 104%.

Reference: ChEMBL document CHEMBL4308841, “Synthesis, in vitro antiproliferative activity, and kinase inhibitory effects of pyrazole-containing diarylureas and diarylamides” (Eur J Med Chem, 2018)
